Measurements taken from patent publication US8012711B2, “Methods of screening for compounds that reduce microbial resistance to fluoroquinolones” (priority 1999, dated 2011).
In brackets after ≈: the same amount, converted by molar mass. Read-outs that look alike come from different tables or passages of the source.

Legend:
[1] = system: Escherichia coli K-12 AG100, its Mar mutant AG112 and derived fluoroquinolone-resistant mutants (acrAB+); assay: MIC by broth microdilution, acrAB+ strains; type: cell-based; conditions: Escherichia coli
Procedure: Selection of fluoroquinolone-resistant mutants. 1-AG100, 2°-AG100, 3*-AG100, 4*-AG100 and 1′-AG112, 2′-AG112, 3′-AG112 were sequential step mutants derived from AG 100 and AG112, respectively, on solid media. For each step, about 10^11 cells of an overnight culture were plated on several LB agar plates supplemented with increasing concentrations of OFL. Single colonies were further purified on OFL-supplemented agar plates. Mutant 2°-AG100 came out of one series, while mutants 3*- and 4*-AG100 came from a second series.
(§1) Susceptibility testing. MICs of selected antimicrobial agents were determined by a standard broth microdilution procedure with cation-adjusted Mueller-Hinton broth (Becton Dickinson, Cockeysville, Md.) and an inoculum of 5×10^5 CFU/ml according to NCCLS performance and interpretive guidelines (NCCLS. 1997. Methods for dilution antimicrobial susceptibility. Tests for bacteria that grow aerobically—Fourth Edition; Approved Standard. NCCLS document M7-A4 (ISBN 1-56238-309-4). NCCLS, 940 West Valley Road, Suite 1400, Wayne, Pa. 19087). Antimicrobial agents on the commercially available microtiter plates (Merlin Diagnostics GmbH, Bornheim, Germany) included the FQs ciprofloxacin (CIP), enoxacin, fleroxacin, nor-flo-xacin, ofloxacin (OFL), pefloxacin, sparfloxacin (SPX), and trovafloxacin (TVA). They also included tetracycline (TET), chloramphenicol (CML), trimethoprim (TMP), cefoxitin (CFOX), cefaclor, cefixim and loracarbef. MICs of bile salts were determined by a broth macrodilution procedure: sodium cholate and sodium deoxycholate were serially diluted twofold in LB broth and tubes inoculated at 5×10^5 CFU/ml. MICs of both antibiotics and bile salts were determined twice in independent experiments with reproducible results.

[2] = system: Escherichia coli AG100, AG112 and derived fluoroquinolone-resistant mutants with ΔacrAB; assay: MIC by broth microdilution, AcrAB-deleted strains; type: cell-based; conditions: Escherichia coli
Procedure: as §1
P1 transduction. […] DNA sequencing.

[3] = system: E. coli; conditions: cited from earlier work
[4] = strain 1-AG100, acrAB+, read-out: MIC
[5] = strain 1-AG112 (1′-AG112), acrAB+, read-out: MIC
[6] = strain 2-AG100 (2°-AG100), acrAB+, read-out: MIC
[7] = strain 2-AG112 (2′-AG112), acrAB+, read-out: MIC
[8] = strain 3*-AG100, acrAB+, read-out: MIC
[9] = strain 3-AG112 (3′-AG112), acrAB+, read-out: MIC
[10] = strain 4*-AG100, acrAB+, read-out: MIC
[11] = strain AG100, acrAB+, read-out: MIC
[12] = strain AG112 (Mar mutant), acrAB+
[13] = strain 1-AG112 (1′-AG112), ΔacrAB
[14] = strain 2-AG100 (2°-AG100), ΔacrAB
[15] = strain 2-AG112 (2′-AG112), ΔacrAB
[16] = strain 3-AG112 (3′-AG112), ΔacrAB

C[C@@H]1CN(c2c(F)c(N)c3c(=O)c(C(=O)O)cn(C4CC4)c3c2F)C[C@H](C)N1 [SPX, sparfloxacin] gave an MIC [1, 4] of 0.125 µg/mL (≈ 0.319 µM), an MIC [1, 5] of 0.25 µg/mL (≈ 0.637 µM) and an MIC [1, 6] of 0.25 µg/mL (≈ 0.637 µM). For the same compound, the MIC [1, 7] was 1 µg/mL (≈ 2.55 µM), the MIC [1, 8] was 0.5 µg/mL (≈ 1.27 µM) and the MIC [1, 9] was 2 µg/mL (≈ 5.1 µM). The MIC [1, 10] was 2 µg/mL (≈ 5.1 µM), the MIC [1, 11] was at most 0.015 µg/mL and the MIC [1, 12] was 0.06 µg/mL (≈ 0.153 µM). It also gave an MIC ([2]; all ΔacrAB mutants, below detection) of under 0.015 µg/mL, an MIC ([2]; strain 1-AG100, ΔacrAB) of at most 0.015 µg/mL and an MIC [2, 13] of at most 0.015 µg/mL. The MIC [2, 14] was at most 0.015 µg/mL, the MIC [2, 15] was at most 0.015 µg/mL and the MIC ([2]; strain 3*-AG100, ΔacrAB) was at most 0.015 µg/mL. It also gave an MIC [2, 16] of at most 0.015 µg/mL, an MIC ([2]; strain 4*-AG100, ΔacrAB) of at most 0.015 µg/mL and an MIC ([2]; strain AG100, ΔacrAB) of at most 0.015 µg/mL. It also gave an MIC ([2]; strain AG112, ΔacrAB) of at most 0.015 µg/mL.
Work on CN(C)[C@@H]1C(O)=C(C(N)=O)C(=O)[C@@]2(O)C(O)=C3C(=O)c4c(O)cccc4[C@@](C)(O)[C@H]3C[C@@H]12 [TET, tetracycline] yielded an MIC [1, 4] of 2 µg/mL (≈ 4.5 µM), an MIC [1, 5] of 4 µg/mL (≈ 9 µM) and an MIC [1, 6] of 2 µg/mL (≈ 4.5 µM). For the same compound, the MIC [1, 7] was 16 µg/mL (≈ 36 µM), the MIC [1, 8] was 8 µg/mL (≈ 18 µM) and the MIC [1, 9] was 8 µg/mL (≈ 18 µM). The MIC [1, 10] was 8 µg/mL (≈ 18 µM), the MIC [1, 11] was 1 µg/mL (≈ 2.25 µM) and the MIC [1, 12] was 4 µg/mL (≈ 9 µM). For the same compound, the MIC ([2]; strain 1-AG100, ΔacrAB) was 1 µg/mL (≈ 2.25 µM), the MIC [2, 13] was 0.5 µg/mL (≈ 1.13 µM) and the MIC [2, 14] was 0.5 µg/mL (≈ 1.13 µM). For the same compound, the MIC [2, 15] was 1 µg/mL (≈ 2.25 µM), the MIC ([2]; strain 3*-AG100, ΔacrAB) was 1 µg/mL (≈ 2.25 µM) and the MIC [2, 16] was 0.5 µg/mL (≈ 1.13 µM). It also gave an MIC ([2]; strain 4*-AG100, ΔacrAB) of 1 µg/mL (≈ 2.25 µM), an MIC ([2]; strain AG100, ΔacrAB) of 0.5 µg/mL (≈ 1.13 µM) and an MIC ([2]; strain AG112, ΔacrAB) of 1 µg/mL (≈ 2.25 µM).
N[C@@H]1[C@H]2CN(c3nc4c(cc3F)c(=O)c(C(=O)O)cn4-c3ccc(F)cc3F)C[C@@H]12 [TVA, trovafloxacin] showed an MIC [1, 4] of 0.25 µg/mL (≈ 0.6 µM), an MIC [1, 5] of 0.5 µg/mL (≈ 1.2 µM) and an MIC ([1]; strain 2-AG100 (2°-AG100), acrAB+) of 0.25 µg/mL (≈ 0.6 µM). The MIC [1, 7] was 1 µg/mL (≈ 2.4 µM), the MIC [1, 8] was 0.5 µg/mL (≈ 1.2 µM) and the MIC [1, 9] was 2 µg/mL (≈ 4.8 µM). The MIC [1, 10] was 2 µg/mL (≈ 4.8 µM), the MIC [1, 11] was 0.06 µg/mL (≈ 0.144 µM) and the MIC [1, 12] was 0.125 µg/mL (≈ 0.3 µM). It also gave an MIC ([2]; strain 1-AG100, ΔacrAB) of 0.06 µg/mL (≈ 0.144 µM), an MIC [2, 13] of 0.06 µg/mL (≈ 0.144 µM) and an MIC [2, 14] of 0.06 µg/mL (≈ 0.144 µM). The MIC [2, 15] was 0.06 µg/mL (≈ 0.144 µM), the MIC ([2]; strain 3*-AG100, ΔacrAB) was 0.06 µg/mL (≈ 0.144 µM) and the MIC [2, 16] was 0.06 µg/mL (≈ 0.144 µM). For the same compound, the MIC ([2]; strain 4*-AG100, ΔacrAB) was 0.125 µg/mL (≈ 0.3 µM), the MIC ([2]; strain AG100, ΔacrAB) was at most 0.03 µg/mL and the MIC ([2]; strain AG112, ΔacrAB) was at most 0.03 µg/mL.
In the case of Oc1cc(Cl)ccc1Oc1ccc(Cl)cc1Cl [triclosan], the “Reduction of resistance to triclosan” value ([3]; deletion of acrAB, all strains) is given as 10 fold, the “Increase of resistance to triclosan” value ([3]; mutation in enoyl reductase (fabI)) is given as “about 100 fold” and the “Increase of resistance to triclosan” value ([3]; overexpression of acrAB, marA, or soxS) is given as “about two-fold”.
